System: bacterial infections
Assay: Treatment of cichlids having bacterial infections by feeding injected live worms
Type: in vivo
Settings: Emperor and Peacock Cichlids with bacterial infections; one injected live worm per fish for six days
Description: Emperor Cichlids and Peacock Cichlids (fish) having bacterial infections were treated using one live food creature (a live worm) per fish for six days. Each worm was injected with Antibiotic Metronidazole at a measurement of 5 ml in syringe and the worm was injected with as much of the 5 ml as the worm would hold. The injected worms were fed to the fish individually by placing the worm adjacent the fish and feeding was confirmed by observation. The fish ate the treated worms in all cases, showing a vigorous feeding instinct for the live worms. […] It is typical to lose some fish being treated for bacterial infections.

## Cc1ncc([N+](=O)[O-])n1CCO [Metronidazole]
  loss of treated fish: None of the fish so treated were lost
  recovery time (sufficiently recovered to be salable): sufficiently recovered to be salable within seven days
